The text below walks through data of patent US8647887B2, “Measuring G protein coupled receptor activation” (Commonwealth Scientific and Industrial Research Organisation, priority 2009, dated 2014).

Several values for one entry are separate records, joined by “and”; a condition that tells them apart may be missing. Equal values may be shown once.

In experiment [1] the test system is Str112 receptor (TGTR). The experiment can be described thus: cell-free BRET^2 assay with dual-tagged Str112 (TGTR). Type of experiment: biochemical, C. elegans. To be noted: 1 μM ligand, 10 nM TGTR; for BRET^2 signal compared to the response of TGTR to water, significance: P≦0.05. The source says: The TGTR sequence flanked by NcoI and NotI restriction sites was synthesised by Genscript. The TGTR sequence was inserted into the NcoI and NotI sites of the pENTR11 vector. These were then recombined into pYES-DEST52 (Invitrogen) using Gateway® technology for subsequent expression in S. cerevisiae.
The same expression protocol was used for the expression of TGTR in InVSC1 as for OGOR expression. The TGTR coding sequence is provided as SEQ ID NO:51, whereas the amino acid sequence is provided as SEQ ID NO:52.
The same RET analysis protocol as described for the OGOR selectivity studies. 1 μM of the ligands pyruvic acid, citric acid, ethyl acetate, acetoin and diacteyl was assayed with 10 nM of TGTR
The bacterial strain OP50 was grown in LB overnight at 37° C. with shaking (200 rpm). E. coli strain OP50 is usually used as a food source for nematode growth in the laboratory (Brenner, 1974). Two assays were performed using the OP50 bacterial culture. The first assay was the addition of 10 μL of the bacterial culture or 10 μL of LB to 10 nM TGTR. The second assay required that 1 mL of the bacterial culture was placed in a microcentrifuge tube and centrifuged at 10000×g for 1 minute. 10 μL of the supernatant, following decanting into a fresh microcentrifuge tube, or 10 μL of LB was added to 10 nM TGTR. Following bacterial sample addition the same protocol was followed as for the OGOR RET analysis.

Experiment [2] is described as follows: whole-cell BRET^2 assay. Type of experiment: cell-based. To be noted: 1 μM, 45 minutes incubation, P≦0.05. The protocol:
FIG. 16. BRET^2 signal upon incubation (45 minutes) with 1 μM of diacetyl (mean±S.D., n=3) monitored using a whole-cell and cell-free assay systems.

In experiment [3] the test system is ODR-10 expressing HEK 293 cells. To be noted: cited from earlier work.
Experiment [4] deals with ODR-10 receptor (OCOY). The experiment can be described thus: cell-free FRET assay with dual-labelled ODR-10 (OCOY). The format is biochemical, C. elegans. To be noted: μM concentrations of diacetyl. As for the experimental part: All spectral scans were recorded with a plate-reading SpectraMax M2 spectrofluorimeter (Molecular Devices). 100 μL aliquots of membrane preparations sample were scanned using 96-well plates (Perkin-Elmer). Fluorescence spectral scans recorded from 450 to 600 nm with an excitation wavelength of 420 nm using a 455 nm emission cut-off filter.
To compare the sensitivity of the BRET^2 system to the FRET system for monitoring GPCR activation the BRET^2 components used to tag the ODR-10 receptor (OGOR) were replaced with FRET components resulting in the insertion of CFP into the 3rd intracellular loop and YFP at the C-terminus (OCOY). The CFP (mCFP) (SEQ ID NO:45) and YFP (mCitrine) (SEQ ID NO:46) derivatives were both monomeric and codon optimized (EUROSCARF) for yeast expression (SEQ ID NOs 47 and 48 respectively).
The OCOY sequence flanked by KpnI and XhoI restriction sites was synthesised by Genscript. The OCOY sequence was inserted into the KpnI and XhoI sites of the pENTR11 vector. These were then recombined into pYES-DEST52 (Invitrogen) using Gateway® technology for subsequent expression in S. cerevisiae. […]
To assess the relative concentrations of dual-tagged receptor samples the fluorescence intensity of the sample was determined from spectral scans and the sample amount normalized by the OCOY fluorescence intensity. […]

Experiment [5] deals with ODR-10 receptor (OGOR). The experiment is described as follows: cell-free BRET^2 assay with dual-labelled ODR-10 (OGOR) in yeast membrane preparations. The format is biochemical, C. elegans. The protocol: Cells were harvested by centrifugation at 1500×g (4° C.) for 5 minutes, washed in water and resuspended in 4 mL of Dulbecco's phosphate buffered saline (D-PBS) or 1×PBS, containing 1000 mg/L glucose, 36 mg/L sodium pyruvate, calcium and magnesium (Invitrogen). The cells were lysed by French press (˜18000 psi) and the soluble protein fractions were isolated by centrifugation at 9300×g (4° C.) for 15 minutes. Following this the soluble protein fraction was transferred to 13.15 mL polycarbonate thick wall centrifuge tubes and ultracentrifuged at 40,000 rpm (Beckman Coulter L-80 ultra-centrifuge) for 1 hour at 4° C. The supernatant was decanted and the membrane pellet resuspended in 1 mL of D-PBD or 1×PBS, and left overnight at 4° C. to solubilise.
Simultaneous dual emission RET measurements were carried out with a POLARstar OPTIMA microplate reader (BMG LabTech). Simultaneous emission measurements used a BRET^2 filter set (410-80/515-30) with the set respective gains for each channel (3300/4095).
To assess the relative concentrations of BRET^2 tagged receptor samples the fluorescence intensity of the sample was determined from spectral scans and the sample amount normalized by the OGOR fluorescence intensity. To convert GFP^2 intensity into concentration purified GFP^2 protein was assayed at different concentrations to produce a calibration graph relating concentration to fluorescence intensity. […] Rearranging the line of best fit equation (y=271x+233.31) results in conversion of fluorescence intensity to concentration. […]
RET analysis was carried out in 96-well plates (Perkin-Elmer) and involved incubating the specified dual tagged receptor protein (OGOR) for 45 minutes with 1 μM of each particular odorant. […] A background signal was recorded by assaying a sample of D-PBS (or 1×PBS). […]
For BRET measurements Clz400a substrate (5 μM) was added following the 45 minute incubation time and the signal recorded using a 0.50s integration time over a 5 second period. Following addition of Clz400a the well was re-sealed while the signal was recorded to reduce cross-contamination of samples. […]
A general note: In BRET a luciferase serves as donor, and the signal depends on an acceptor being close.

For experiment [6], the system named is OGOR mutant (H110Y). The experiment is described as follows: cell-free BRET^2 assay with OGOR mutant (H110Y), negative control. Type of experiment: biochemical, C. elegans. To be noted: μM concentrations of diacetyl. As for the experimental part:
Site-directed mutagensis was carried out with OGOR in pDONR201 vector (see above) as the double stranded template. The histidine 110 to tyrosine (H110Y) mutation was performed using the Stratagene Quickchange site directed mutagenesis kit according to standard protocols using the following primers; 5′-[…]-3′ (WT) (SEQ ID NO:43) and 5′-[…] GTG-3′ (H110Y antisense) (SEQ ID NO:44).
PCR was performed with Pfx50™ standard ingredients (Invitrogen) and conditions were as follows 94° C. 2 mins, 16 cycles of 94° C. 30 secs, 55° C. 1 minute, 68° C. 6.8 minutes. Following sequencing the OGOR mutant was then subcloned into pYES-DEST52 (Invitrogen) using Gateway® technology (5′ and 3′ attB sites were included in original OGOR sequence) for subsequent expression in S. cerevisiae.
RET analysis was carried out in 96-well plates (Perkin-Elmer) and involved incubating the specified dual tagged receptor protein (OGOR) for 45 minutes with 1 μM of each particular odorant. The final volume was 100 μL and included 10 μL of odorant, receptor protein sample (see ‘Normalization of sample concentration’ section), D-PBS (or 1×PBS) and 5 μL of Clz400a (5 μM). A background signal was recorded by assaying a sample of D-PBS (or 1×PBS). During the incubation time the 96-well plate wells were sealed with Topseal™—A (Packard) with each sample area individually sealed. […]

Experiment [7] addresses T1, α2A receptor (Mus musculus, UniProt Q01338).
T1 sequence (Q01338 1-465): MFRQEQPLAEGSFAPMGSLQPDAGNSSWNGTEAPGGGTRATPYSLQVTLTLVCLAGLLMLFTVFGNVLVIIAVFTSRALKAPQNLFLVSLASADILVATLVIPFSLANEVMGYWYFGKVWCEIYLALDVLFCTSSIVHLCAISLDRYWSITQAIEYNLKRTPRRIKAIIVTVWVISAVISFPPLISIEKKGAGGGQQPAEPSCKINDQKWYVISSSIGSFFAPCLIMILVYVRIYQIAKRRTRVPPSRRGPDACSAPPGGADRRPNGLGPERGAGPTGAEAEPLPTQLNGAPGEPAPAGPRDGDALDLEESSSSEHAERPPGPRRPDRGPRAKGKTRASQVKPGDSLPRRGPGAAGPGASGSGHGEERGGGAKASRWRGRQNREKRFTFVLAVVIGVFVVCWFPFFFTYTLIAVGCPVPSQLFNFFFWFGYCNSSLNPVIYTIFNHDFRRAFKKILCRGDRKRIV
Particulars: 10 nM; cited from earlier work.

The target in experiment [8] is T2, PTHR (Homo sapiens, UniProt Q03431).
T2 sequence (Q03431 27-593): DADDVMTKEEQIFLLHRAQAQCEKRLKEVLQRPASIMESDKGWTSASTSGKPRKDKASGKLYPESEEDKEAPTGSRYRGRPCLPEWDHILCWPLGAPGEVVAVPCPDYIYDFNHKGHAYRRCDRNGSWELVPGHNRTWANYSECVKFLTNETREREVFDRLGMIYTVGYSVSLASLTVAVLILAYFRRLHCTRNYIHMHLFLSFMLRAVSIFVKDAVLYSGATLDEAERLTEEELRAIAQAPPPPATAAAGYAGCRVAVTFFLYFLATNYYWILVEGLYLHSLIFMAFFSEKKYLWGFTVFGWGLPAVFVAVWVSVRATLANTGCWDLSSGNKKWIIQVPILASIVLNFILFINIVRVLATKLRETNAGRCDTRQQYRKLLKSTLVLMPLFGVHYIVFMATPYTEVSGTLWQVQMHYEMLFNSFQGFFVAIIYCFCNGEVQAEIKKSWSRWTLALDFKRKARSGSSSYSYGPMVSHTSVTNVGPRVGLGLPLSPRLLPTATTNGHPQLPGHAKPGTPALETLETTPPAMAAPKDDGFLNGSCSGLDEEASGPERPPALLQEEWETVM
To be noted: 1 μM; cited from earlier work.

Turning to `CC(=O)C(C)O` (stereo not shown) [acetoin], in experiment [1], the “increase in the BRET^2 signal” value is 20.8% and the “BRET^2 signal compared to the response of TGTR to water, significance” value is “significantly higher”.
Take `CC(=O)C(C)=O` [diacetyl]: the “change in the BRET^2 signal, whole cell assay” value in experiment [2] was “no significant change”. In experiment [3] (ODR-10 expressing HEK 293 cells), the “Ca^2+ elevation response” value was “the only volatile compound to produce a Ca^2+ elevation response”. In addition, the “apparent affinity (EC50) as part per million” value in experiment [3] (expressed in human cells, calcium imaging) is ~0.2 ppm. The EC50 in experiment [3] (expressed in human cells, calcium imaging, read-out: apparent affinity (EC50) of ODR-10 for diacetyl) is 2300 nM. Also, in experiment [4], the “reduction in FRET ratio (intensity at 520 nm/intensity at 480 nm)” value worked out at 7.6% and the “response versus solvent (water) response, significance” value is “significantly different”. In experiment [5] (1 μM, 45 minutes incubation, Example 7, P≦0.05), the “decrease in the BRET^2 signal, cell-free assay system” value is 52%. Also, the “change in BRET^2 signal compared to the solvent (water) response” value in experiment [5] (OGOR, μM concentrations (1 μM) of ligand, 45 minutes incubation, decrease in signal) is 37.5% and 32.4%. Further, the “EC50 expressed as parts per quadrillion” value in experiment [5] (equivalent of the fM EC50) worked out at 0.31 ppq. In addition, in experiment [6], the “BRET^2 response to diacetyl” value came to 4.1% and the “response versus solvent (water) response, significance” value is recorded as “not significantly different”.
`NC[C@H](O)c1ccc(O)c(O)c1` [norepinephrine]: the “change in the FRET signal upon binding” value in experiment [7] was ~5%.
For `CC(=O)C(=O)O` [pyruvic acid], in experiment [1], the “BRET^2 signal compared to the response of TGTR to water, significance” value was “significantly higher”.
For “PTH: parathyroid hormone, agonist of PTHR, literature value”, in experiment [8], the “change in the FRET signal upon binding” value is reported as ~20%.

Broadly, the EC50 is the concentration that produces a half-maximal response.
